System: mechanically ventilated, adult patients admitted to the intensive care unit (ICU)
Assay: Example 2: prospective, randomized, controlled study, mortality analysis
Assay type: in vivo, human
From the text: All mechanically ventilated, adult patients admitted to the intensive care unit (ICU) were eligible for inclusion.
All mechanically ventilated, adult (age>18y) patients admitted to our 56-bed, mainly surgical, ICU from Feb. 2, 2000 onward were considered eligible for inclusion. […] Informed consent was obtained from the closest family member. The study protocol was approved by the Institutional Review Board of the Catholic University of Leuven School of Medicine.
Consecutive patients were randomly assigned to one of these two treatment groups using blinded envelopes, stratified according to type of critical illness diagnosed on admission [(a) neurological disease, cerebral trauma or surgery; (b) cardiac surgery; (c) thoracic surgery and/or respiratory insufficiency; (d) abdominal surgery/peritonitis; (e) vascular surgery; (f) multiple trauma or severe burns: (g) organ transplantation; (h) others, mainly extensive oncological procedures] and balanced with the use of permuted blocks of ten.
All patients were fed continuously, on admission with mainly intravenous glucose (200-300 g/24 h) and from the next day onward with a standardised feeding schedule aiming for a caloric content up to 20-30 non-protein Calories/kg/24 h and a balanced composition (0.13-0.26 g nitrogen/kg/24 h and 20%-40% of non-protein Calories as lipids) of either total parenteral, combined parenteral/enteral or full enteral feeding, the latter mode attempted as early as possible. Other comcomitant ICU therapy was left to the discretion of attending physicians.
In patients treated in ICU for more than one week, a weekly electromyography (EMG) was performed to screen for Critical Illness Polyneuropathy. EMGs were interpreted by the same electrophysiologist who was blinded for randomization. In case of ICU death, a post-mortem examination was performed to confirm the presumed cause of death.
The primary outcome measure was death from all causes during intensive care. Secondary outcome measures were in-hospital mortality, incidence of prolonged intensive care dependency and need for ICU re-admission, need for vital organ system support comprising mechanical ventilatory support, renal replacement therapy (continuous or intermittent hemofiltration or dialysis), inotropic or vasopressor support, incidence of critical illness polyneuropathy, the degree of inflammation, incidence of blood stream infections and use of antibiotics, transfusion requirements and incidence of hyperbilirubinemia. Furthermore, use of intensive care resources was analysed by cumulative TISS scores. In order to accurately and objectively assess duration of ICU stay, which is often influenced by non-patient related factors such as bed availability on regular wards, patients were defined ‘dischargable from ICU’ when they were no longer in need of vital organ system support and received at least ⅔rd of the caloric need through the normal enteral route or earlier when actually sent to a ward.
We hypothesized to detect a difference in mortality selectively in long-stay (>5 days) critically ill patients. Since prolonged ICU stay is not predictable at ICU admission, and since we aimed at treatment from admission onward, we chose to include all mechanically ventilated patients admitted to the ICU, without selection. We estimated that inclusion of 2500 admissions would be needed to rule out an absolute difference in mortality of ±5% in the long-stay cohort which would translate in an absolute risk reduction of ±2% for overall ICU mortality (2-sided alfa level of <0.05). […] All analyses were done on intention to treat basis.
Baseline and outcome variables were compared using Student's t-test, Chi-square test and Mann-Whitney-U test, as appropriate. Death odds ratios were calculated using multivariate logistic regression analysis.

## insulin
IIS
  Causes of death during intensive care - total no: cardiogenic shock: 10
  Causes of death during intensive care - total no: multiple organ failure with proven septic focus: 8
  Causes of death during intensive care - total no: multiple organ failure, no detectable septic focus: 14
  Causes of death during intensive care - total no: severe brain damage: 3
  ICU deaths among patients staying >5 days (%): (10.6%)
  ICU deaths among patients staying >5 days - total no.: 22
  ICU deaths among patients staying ≤5 days (%): (2.3%)
  ICU deaths among patients staying ≤5 days - total no.: 13
  ICU deaths, abdominal surgery/peritonitis (%): (13.3%)
  ICU deaths, abdominal surgery/peritonitis - total no: 6
  ICU deaths, cardiac surgery (%): (2%)
  ICU deaths, cardiac surgery - total no.: 10
  ICU deaths, multiple trauma or severe burns (%): (12.1%)
  ICU deaths, multiple trauma or severe burns - total no.: 4
  ICU deaths, neurological disease, cerebral trauma or surgery (%): (18.1%)
  ICU deaths, neurological disease, cerebral trauma or surgery - total no.: 6
  ICU deaths, other types of critical illness (%): (8.7%)
  ICU deaths, other types of critical illness - total no: 25
  ICU deaths, others (%): (0%)
  ICU deaths, others - total no: 0
  ICU deaths, thoracic surgery and/or respiratory insufficiency - total no.: 5
  ICU deaths, transplantation (%): (4.3%)
  ICU deaths, transplantation - total no: 2
  ICU deaths, vascular surgery (%): (6.6%)
  ICU deaths, vascular surgery - total no.: 2
  In-hospital deaths among patients staying >5 days in ICU (%): (16.8%)
  In-hospital deaths among patients staying >5 days in ICU - total no.: 35
  In-hospital deaths among patients staying ≤5 days in ICU (%): (3.6%)
  In-hospital deaths among patients staying ≤5 days in ICU - total no.: 20
  Mortality in bacteremic patients: 12.5%
IIS vs RIS
  ICU deaths among patients staying >5 days, NNT: 11
  ICU deaths among patients staying >5 days, RRR (%): 47%
  ICU deaths among patients staying ≤5 days, RRR (%): =
  ICU deaths, NNT to save one life: 29
  ICU deaths, RRR (%): 43%
  In-hospital deaths among patients staying >5 days in ICU, NNT: 11
  In-hospital deaths among patients staying >5 days in ICU, RRR (%): 36%
  In-hospital deaths among patients staying ≤5 days in ICU, RRR (%): =
  In-hospital deaths, NNT: 27
  In-hospital deaths, RRR (%): 34%
IIS vs RIS, ICU stay >5 days
  ICU mortality, absolute risk reduction in the prolonged critically ill cohort: 9.6%
IIS, N = 765
  ICU deaths - total no.: 35
  In-hospital deaths - total no.: 55
RIS
  Causes of death during intensive care - total no: cardiogenic shock: 7
  Causes of death during intensive care - total no: multiple organ failure with proven septic focus: 33
  Causes of death during intensive care - total no: multiple organ failure, no detectable septic focus: 18
  Causes of death during intensive care - total no: severe brain damage: 5
  ICU deaths among patients staying >5 days (%): (20.2%)
  ICU deaths among patients staying >5 days - total no.: 49
  ICU deaths among patients staying ≤5 days (%): (2.6%)
  ICU deaths among patients staying ≤5 days - total no.: 14
  ICU deaths, abdominal surgery/peritonitis (%): (15.5%)
  ICU deaths, abdominal surgery/peritonitis - total no: 9
  ICU deaths, cardiac surgery (%): (5%)
  ICU deaths, cardiac surgery - total no.: 25
  ICU deaths, multiple trauma or severe burns (%): (8.6%)
  ICU deaths, multiple trauma or severe burns - total no.: 3
  ICU deaths, neurological disease, cerebral trauma or surgery (%): (23.3%)
  ICU deaths, neurological disease, cerebral trauma or surgery - total no.: 7
  ICU deaths, other types of critical illness (%): (13.1%)
  ICU deaths, other types of critical illness - total no: 38
  ICU deaths, others (%): (17.1%)
  ICU deaths, others - total no: 6
  ICU deaths, thoracic surgery and/or respiratory insufficiency (%): (17.9%)
  ICU deaths, thoracic surgery and/or respiratory insufficiency - total no.: 10
  ICU deaths, transplantation (%): (2.3%)
  ICU deaths, transplantation - total no: 1
  ICU deaths, vascular surgery (%): (6.3%)
  ICU deaths, vascular surgery - total no.: 2
  In-hospital deaths among patients staying >5 days in ICU (%): (26.3%)
  In-hospital deaths among patients staying >5 days in ICU - total no.: 64
  In-hospital deaths among patients staying ≤5 days in ICU (%): (3.9%)
  In-hospital deaths among patients staying ≤5 days in ICU - total no.: 21
  Mortality in bacteremic patients: 29.5%
RIS, N = 783
  ICU deaths - total no.: 63
  In-hospital deaths - total no.: 85
RIS, insulin-receiving patients
  ICU mortality among the RIS patients actually receiving insulin: 12.4%

— US7446091B2, “Methods and preparations for curing clinically ill patients” (Novo Nordisk A/S, priority 2000, dated 2008)
